Data on eight compounds can be found in patent US9902681B2, “N-3 immunoresolvents: structures and actions” (THE BRIGHAM AND WOMEN'S HOSPITAL, INC., priority 2013, dated 2018).

One experiment has as its system neutrophil recruitment. Nature of the experiment: Zymosan peritonitis, neutrophil recruitment into the peritoneum. The arrangement: species or system mouse. The note with it: administered in vivo (as mixtures, FIG. 5); result in words. Here is the method:
FIG. 5. n-3 DPA immunoresolvents display potent anti-inflammatory actions in vivo. The indicated n-3 DPA-derived product mixtures were administered by intravenous injection 10 min prior to the intraperitoneal administration of zymosan (0.1 mg, 500 μl PBS) to 6-8-week-old male FvB mice. At 4 h, peritoneal exudates were collected and the (a) number of infiltrated neutrophils was assessed by light microscopy and flow cytometry. Exudate levels for the pro-inflammatory mediators (b) IL6 and (c) MCP-1 were determined by cytokine array. The ratio of RvD1n-3 DPA to RvD2n-3 DPA was ˜3:1 (A), the ratio of MaR1n-3 DPA to MaR2n-3 DPA was ˜4:1 (B); the ratio of RvD5n-3 DPA to PD1n-3 DPA was ˜9:1 (C). Results are mean±SEM. n=4 mice per group (*P<0.05; vs. vehicle group). Results are mean±SEM. n=4. *P<0.05, **P<0.01 vs. zymosan mice.
It was then determined whether these novel structures carried bioactivity.
Zymosan (0.1 mg) was injected intraperitoneally (i.p.) in 1 ml of sterile saline. Exudates were collected at 0, 4, 12 and 24 h post zymosan. Leukocyte numbers and differential counts in the peritoneal exudates were determined as in^16. In designated experiments, mice were administered intravenously (i.v): Vehicle (saline containing 0.1% EtOH), or the indicated mixture of n-3 DPA-derived products at 100 ng/mouse 5 min prior to i.p. zymosan administration (0.1 mg). After 4 h the exudates were collected and the number of extravasated neutrophils determined using Turks solution and flow cytometry as above.

Experiment [1] deals with infiltrated leukocytes into the lungs / lung tissue damage. Nature of the experiment: Murine hind limb ischemia reperfusion, second organ (lung) injury: histology and lung MPO. It is filed as in vivo, mouse. The conditions noted are these: i.v. 10 min prior to reperfusion; RvD1 500 ng (FIG. 1) or 0.5 ng (Methods); result in words. As to the method: (a) Structures of DHA and n-3 DPA. (b) Ischemia was induced by applying tourniquets to the hind limb of 6-8-week-old male FvB mice. After 1 h, tourniquets were removed and reperfusion ensued for 3 h. 10 min prior to reperfusion, vehicle (saline containing 0.1% EtOH), RvD1 (500 ng) or a mixture of n-3 DPA-derived products (see Methods for details) were administered intravenously. At the end of reperfusion, lungs were collected; (c) tissue histology by H&E staining (×200) and (d) MPO levels were assessed. (e) Blood was collected, incubated with rat anti-mouse Ly6G and rat anti-mouse CD41 antibodies and neutrophil leukocyte aggregates were assessed by flow cytometry. (f) Plasma prostanoid and (g) leukotriene levels were assessed by lipid mediator metabololipidomics. Results are mean±SEM. n=4 mice per group. (*P<0.05; vs. vehicle group). Results c are representative n=4. Results d-e are mean±SEM. n=4. *P<0.05, **P<0.01 vs. vehicle mice. […]
Mice were anesthetized by intraperitoneal injection of a mixture of […]. […] The frozen lungs were homogenized from individual mice, centrifuged and the tissue myeloperoxidase (MPO) levels were determined using a mouse MPO ELISA (R&D Systems.).

In another experiment the test system is human neutrophils. In words: Neutrophil chemotaxis towards IL-8 (ChemoTx). It is filed as cell-based. The note with it: 1 nM, 15 min, 37° C.; IL-8 100 ng/ml, 90 min. Here is the method:
FIG. 7. Reduction in human neutrophil chemotaxis, neutrophil-endothelia cell adhesion and stimulation of macrophage phagocytosis by n-3 DPA-derived immunoresolvents. (a) Left panel: micrographs depict PKH26-labeled neutrophils adherent to WGA-Alexafluor® 488-labeled HUVEC stimulated with TNF-α (10 ng/ml, 4 h, 37° C., 0.1% FCS) with or without n-3 DPA resolvins (1 nM, 15 min, 37° C., pH7.45; ×40 magnification). Right panel: Fluorescently labeled human neutrophils were incubated with vehicle (0.1% EtOH in PBS) or n-3 DPA products. These were then added to TNF-α-stimulated HUVEC and incubated for 30 min (37° C.), non-adherent cells were washed and extent of neutrophil adhesion assessed using a SpectraMax M3 Plate reader. […] After 60 min (37° C., pH7.45), the incubation was stopped, extracellular fluorescence quenched using trypan blue and phagocytosis assessed using a SpectraMax M3 Plate reader. […]
Peripheral blood neutrophils were obtained from healthy volunteers as in^17. […] 2.5×10^4 cells were then added to the upper chamber of the ChemoTx System (3 μm pore size filter) and chemotaxis towards IL8 (100 ng/ml) was assessed (90 min, 37° C., 5% CO2). The number of cells migrated into the bottom chamber was determined using Alama Blue following manufacturer's instructions on a Spectra Max M3 microplate reader (Molecular Devices Inc., Sunnyvale, Calif.).

Experiment [2] concerns human neutrophils adhering to TNF-α activated endothelial cells (HUVEC). Nature of the experiment: Human neutrophil-endothelial cell adhesion. The experiment is classed as cell-based. The conditions noted are these: 1 nM, 15 min, 37° C.; HUVEC stimulated with TNF-α 10 ng/ml, 4 h; vs vehicle. As to the method:
(§1) FIG. 7. Reduction in human neutrophil chemotaxis, neutrophil-endothelia cell adhesion and stimulation of macrophage phagocytosis by n-3 DPA-derived immunoresolvents. (a) Left panel: micrographs depict PKH26-labeled neutrophils adherent to WGA-Alexafluor® 488-labeled HUVEC stimulated with TNF-α (10 ng/ml, 4 h, 37° C., 0.1% FCS) with or without n-3 DPA resolvins (1 nM, 15 min, 37° C., pH7.45; ×40 magnification). Right panel: Fluorescently labeled human neutrophils were incubated with vehicle (0.1% EtOH in PBS) or n-3 DPA products. These were then added to TNF-α-stimulated HUVEC and incubated for 30 min (37° C.), non-adherent cells were washed and extent of neutrophil adhesion assessed using a SpectraMax M3 Plate reader. (b) Neutrophils were incubated with vehicle (0.1% EtOH in PBS) or n-3 DPA products (1 nM, 15 min, 37° C., pH7.45) prior to loading on ChemoTx chambers and assessing chemotaxis towards IL-8 (100 ng/ml, 90 min, 37° C., pH7.45). […] After 60 min (37° C., pH7.45), the incubation was stopped, extracellular fluorescence quenched using trypan blue and phagocytosis assessed using a SpectraMax M3 Plate reader. […]
HUVEC were purchased from Lonza and cultured to passage 4. […] The plates were then washed with DPBS to remove non-adherent cells and the number of adherent neutrophils assessed using a Spectra Max M3 microplate reader.

In experiment [3] the test system is human monocyte-derived macrophages. Nature of the experiment: Macrophage phagocytosis of fluorescently labeled zymosan. The conditions noted are these: 1 nM, 15 min, 37° C.; then labeled zymosan 60 min. It is filed as cell-based. As to the method: as §1
Macrophages were prepared and phagocytosis was assessed as in^16. […] Phagocytosis was assessed using an M3 SpectraMax plate reader.

Consider `CC/C=C\C/C=C\CC(O)C=CC=CC=CC(O)CCCCCC(=O)O` (stereo not shown) [MaR1n-3 DPA, 7,14-dihydroxy-8,10,12,16Z,19Z-docosapentaenoic acid], for which, in the experiment on neutrophil recruitment, the “neutrophil infiltration in murine peritonitis” value (shortened to “neutrophil infiltration”) was “reduced neutrophil infiltration”. Same read-out and setting: under `CC/C=C\C/C=C\CC(O)C(O)C=CC=C/C=C\CCCCCC(=O)O` (stereo not shown) [MaR2n-3 DPA, 13,14-dihydroxy-7Z,9,11,16Z,19Z-docosapentaenoic acid] stands “reduced neutrophil infiltration”. Same read-out and setting: under `CC/C=C\CC(O)C=CC=CC=CC(O)C/C=C\CCCCCC(=O)O` (stereo not shown) [PD1n-3 DPA, 10,17-dihydroxy-7Z,11,13,15,19Z-docosapentaenoic acid] stands “reduced neutrophil infiltration”. In the case of `CC/C=C\C[C@H](O)/C=C/C=C\C=C\C=C\[C@@H](O)[C@@H](O)C/C=C\CCC(=O)O` [RvD1, 7S,8R,17S-trihydroxy-4Z,9E,11E,13Z,15E,19Z-docosahexaenoic acid], in experiment [1], the “protection from secondary organ injury (lung tissue damage, infiltrated leukocytes)” value is reported as “protection”. Turning to `CC/C=C\CC(O)/C=C/C=CC=CC=CC(O)C(O)CCCCCC(=O)O` (stereo not shown) [RvD1n-3 DPA, 7,8,17-trihydroxy-9,11,13,15E,19Z-docosapentaenoic acid], the “neutrophil infiltration” value in the experiment with neutrophil recruitment is on record as “reduced neutrophil infiltration”. For the compound `CC/C=C\C[C@H](O)[C@H](O)/C=C/C=C/C=C\C=C\[C@@H](O)C/C=C\CCC(=O)O` [RvD2, 7S,16R,17S-trihydroxy-4Z,8E,10Z,12E,14E,19Z-docosahexaenoic acid], in the experiment on human neutrophils, the “reduction in neutrophil chemotaxis towards an IL-8 gradient” value is roughly 42%. Further, the “reduction in neutrophil adhesion to TNF-α activated endothelial cells” value in experiment [2] is roughly 30%. Also, the “increase in macrophage phagocytosis (uptake) of zymosan” value in experiment [3] is given as roughly 50%. As for `CC/C=C\CC(O)C(O)/C=C/C=CC=CC=CC(O)CCCCCC(=O)O` (stereo not shown) [RvD2n-3 DPA, 7,16,17-trihydroxy-8,10,12,14E, 19Z-docosapentaenoic acid], the “neutrophil infiltration” value in the experiment on neutrophil recruitment is “reduced neutrophil infiltration”. The same measure, in the same setting: under `CC/C=C\C[C@H](O)/C=C/C=C\C/C=C\C=C\[C@@H](O)CCCCCC(=O)O` [RvD5n-3 DPA, 7,17-trihydroxy-8E,10,13,15E,19Z-docosapentaenoic acid] stands “reduced neutrophil infiltration”.
